Results published in patent publication US10709720B2, “Human milk oligosaccharides for modulating inflammation” (priority 2010, dated 2020).
In brackets after ≈: the same amount, converted by molar mass. Entries after “also recorded” stand apart in the source; their conditions may differ.

Columns and labels:
[1] = tested on: respiratory syncytial virus (RSV); assay: in vitro inhibition of viral infectivity, co-incubation of virus with HMO (Example 36); type: cell-based; settings: virus dose about 500-1,000 units/mL; HMOs added at 1 mg/mL or 10 mg/mL
Description: In this Example, the effect of purified human milk oligosaccharides (HMO) on in vitro inhibition of viral infectivity is analyzed.
Samples are prepared by co-incubation of a uniform virus dose of from about 500 units/mL to about 1,000 units/mL of one of three respiratory viruses: (1) respiratory syncytial virus (RSV); (2) human parainfluenza virus (HPIV3); or (3) H1N1 influenza virus with one of the following HMOs: (1) 3′-sialyllactose (3′SL); (2) 6′-sialyllactose (6′SL); (3) 3′-fucosyllactose (3′FL); (4) 2′-fucosyllactose (2′FL); (5) lacto-N-neotetraose (LNnT); or (6) sialic acid (SA). The HMOs are added at concentrations of either 1 mg/mL or 10 mg/mL.

[2] = tested on: monocyte-derived cytokines; assay: monocyte-derived cytokines in supernatants of HMO-treated peripheral blood mononuclear cells (Example 39); type: cell-based, human
Description: (§1) Specifically, either 3′SL or 6′SL is added, at concentrations of 0.1 mg/mL, 0.2 mg/mL, or 0.5 mg/mL to fresh peripheral blood mononuclear cells and incubated at 37° C. in 5% CO2 to pretreat the cells for approximately 24 hours. LNnT is added, at concentrations of 0.1 mg/mL, 0.2 mg/mL, or 1 mg/mL to fresh peripheral blood mononuclear cells and incubated at 37° C. in 5% CO2 to pretreat the cells for approximately 24 hours. Lactose is included as a carbohydrate control. Matched endotoxin unit concentration controls are included to allow differentiation of ingredient effects from inherent low levels of endotoxin. Some variables are then incubated with RSV at a multiplicity of infection (MOI) of 0.1 for approximately 1 hour at 37° C. in 5% in CO2. Uninfected control variables are incubated with medium for approximately 1 hour at 37° C. in 5% CO2. After approximately one hour, fresh medium alone, or fresh medium containing the appropriate concentration of 3′SL, 6′SL, LNnT, lactose, or endotoxin is added to the appropriate tubes and the cells are incubated for 48 hours at 37° C. in 5% CO2. Supernatants are collected at 24 and 48 hours post-infection.
(§2) Cytokines are measured in supernatants for each variable at 24 and 48 hours to assess the effects of HMOs on the early immune response to RSV. Cytokines are measured using custom Bio-Plex Human cytokine kits from Bio-Rad. Results for interferon-inducible protein 10 (IP-10, also known as CXCL 10) are shown in FIGS. 3 and 4 for 3′SL and 6′SL, and in FIGS. 5 and 6 for LNnT. IP-10 is a CXC chemokine that attracts, binds to and activates the CXCR3 receptor on natural killer cells and memory T cells. IP-10 is expressed by monocytes and a number of other cells, and is induced by interferon. A positive correlation exists between RSV clinical disease severity in children (as measured by: length of hospital stay, fever, and number of days supplemental O2 is required) and serum IP-10. Therefore, a decrease in IP-10 signals a decrease in severity of RSV disease experienced.

[3] = tested on: H1N1 influenza virus; assay: microbe, parasite or virus in culture; type: cell-based
[4] = tested on: interleukin 10 (IL-10); assay: IL-10 in supernatants of HMO-pretreated peripheral blood mononuclear cells with or without RSV (Example 39); type: cell-based, human; settings: in the presence or absence of RSV
Description: as §1, with “After approximately one hour, fresh medium alone, or fresh medium containing the appropriate concentration of 3′SL, 6′SL, LNnT, lactose, or endotoxin is added to the appropriate tubes and the cells are incubated for 48 hours at 37° C. in 5% CO2. Supernatants are collected at 24 and 48 hours post-infection.” left out
Cytokines are measured in supernatants for each variable at 24 and 48 hours to assess the effects of HMOs on the early immune response to RSV. Cytokines are measured using custom Bio-Plex Human cytokine kits from Bio-Rad. […] A positive correlation exists between RSV clinical disease severity in children (as measured by: length of hospital stay, fever, and number of days supplemental O2 is required) and serum IP-10. […]

[5] = tested on: interferon-inducible protein 10 (IP-10); assay: IP-10 in supernatants of HMO-pretreated, RSV-infected peripheral blood mononuclear cells (Example 39); type: cell-based, human; settings: for IP-10 in virus-infected variables: 24 hour pretreatment, both donors, 24 and 48 hours post-infection; for IP-10 level reached compared with uninfected controls / effectiveness at dampening virus-induced inflammation (decrease in IP-10) compared with 3′SL: RSV-infected PBMCs; for reducing inflammation caused by RSV: pretreatment for 24 hours
Description: as §1, §2

[6] = tested on: Interleukin 8 (IL-8); assay: IL-8 in supernatants of PBMCs treated with 3′SL and/or 6′SL with or without RSV (Example 40); type: cell-based, human; settings: in the presence of RSV (MOI 0.1); individual 0.1-0.5 mg/mL, combinations 0.2-1.0 mg/mL total; FIG. 11
Description: In this example, the combination of 3′SL and 6′SL to reduce the inflammatory cytokine IL-8 in vitro is analyzed.
Specifically, 3′SL and 6′SL are added individually at concentrations of 0.1 mg/mL, 0.2 mg/mL, or 0.5 mg/mL or in combination (Combo 1=1 part 3′SL to 1 part 6′SL; Combo 2=1 part 3′SL to 2 parts 6′SL), at total concentrations of 0.2 mg/mL, 0.4 mg/mL, or 1.0 mg/mL to fresh peripheral blood mononuclear cells (PBMCs) and incubated at 37° C. in 5% CO2 to pretreat the cells for approximately 24 hours. Lactose is included as a carbohydrate control. Matched endotoxin unit concentration controls are included to allow differentiation of ingredient effects from inherent low levels of endotoxin. After approximately 24 hours, some variables are then incubated with RSV at a multiplicity of infection (MOI) of 0.1 for approximately 1 hour at 37° C. in 5% in CO2. Uninfected control variables are incubated with medium for approximately 1 hour at 37° C. in 5% CO2. […] Cytokines are measured in supernatants for each variable at 24 and 48 hours to assess the effects of the 3′SL and/or the 6′SL on the early immune response to RSV. Cytokines are measured using custom Bio-Plex Human cytokine kits from Bio-Rad. […]

[7] = tested on: human parainfluenza virus (HPIV3); assay: microbe, parasite or virus in culture; type: cell-based; settings: virus dose about 500-1,000 units/mL, HMOs added at 1 mg/mL or 10 mg/mL
[8] = tested on: H1N1 influenza virus; assay: organism not typed; type: cell-based; settings: HMO at 10 mg/mL, MDCK cells, FIG. 1
[9] = in the presence or absence of the virus
[10] = virus dose about 500-1,000 units/mL, HMOs added at 1 mg/mL or 10 mg/mL

Row | Structure (SMILES) | IC50 (mg HMO/mL) RSV [1] | immunomodulation: induces and/or modifies production of monocyte-derived cytokines [2, 9] | IC50 (mg HMO/mL) H1N1 Influenza [3, 10] | IL-10 concentration [4] | IP-10 in virus-infected variables ([5]; RSV MOI 0.1) | IP-10 level reached compared with uninfected controls [5] | effectiveness at dampening virus-induced inflammation (decrease in IP-10) compared with 3′SL [5] | reducing inflammation caused by RSV [5] | anti-viral activity against H1N1 influenza virus ([3]; HMO at 1 mg/mL) | IL-8 concentration with increasing HMO concentration [6] | RSV-induced IP-10, Donor B ([5]; RSV MOI 0.1, 0.1-0.5 mg/mL, Donor B) | RSV-induced IP-10, Donor E ([5]; RSV MOI 0.1, 0.1-0.5 mg/mL, Donor E) | IC50 (mg HMO/mL) HPIV3 [7] | immunomodulation: induces and/or modifies production of monocyte-derived cytokines ([2]; in the absence of the virus) | inhibition of virus infectivity [8] | IC50 ([3]; Influenza A virus, H1N1, virus dose about 500-1,000 units/mL, HMOs added at 1 mg/mL or 10 mg/mL, read-out: IC50 (mg HMO/mL) H1N1 Influenza) | inhibition at 10000 µg/mL ([8]; read-out: inhibition of virus infectivity) | IC50 ([7]; Human respirovirus 3, read-out: IC50 (mg HMO/mL) HPIV3)
1 | CC(=O)N[C@H]1[C@H](O[C@H]2[C@@H](O)[C@@H](CO)O[C@@H](O[C@H]3[C@H](O)[C@@H](O)C(O)O[C@@H]3CO)[C@@H]2O)O[C@H](CO)[C@@H](O[C@@H]2O[C@H](CO)[C@H](O)[C@H](O)[C@H]2O)[C@@H]1O (mixture of isomers) [LNnT, lacto-N-neotetraose] | >10 mg HMO/mL | immunomodulatory | >10 mg HMO/mL | increases IL-10 concentration in a dose-dependent manner | clearly downregulates IP-10 | reduce IP-10 to levels found in uninfected controls | more effective than 3′SL | effective in reducing inflammation caused by RSV |  |  |  |  |  |  |  |  |  | 
2 | CC(=O)N[C@H]1[C@H]([C@H](O)[C@H](O)CO)O[C@@](O[C@H]2[C@@H](O)[C@@H](CO)O[C@@H](O[C@H]3[C@H](O)[C@@H](O)C(O)O[C@@H]3CO)[C@@H]2O)(C(=O)O)C[C@@H]1O (some centres unmarked) [3′SL, 3′-sialyllactose] | >10 mg HMO/mL | immunomodulatory | ~5 mg HMO/mL |  | dampen RSV-induced IP-10 |  |  | effective in reducing inflammation caused by RSV | inhibited | increase IL-8 | not effective | downregulates RSV-induced IP-10 | >10 mg HMO/mL |  |  |  |  | 
3 | CC(=O)N[C@H]1[C@H]([C@H](O)[C@H](O)CO)O[C@@](OC[C@H]2O[C@@H](O[C@H]3[C@H](O)[C@@H](O)[C@H](O)O[C@@H]3CO)[C@H](O)[C@@H](O)[C@H]2O)(C(=O)O)C[C@@H]1O [6′SL, 6′-sialyllactose] | >10 mg HMO/mL |  | ~10 mg HMO/mL | increases interleukin 10 (IL-10) concentration in a dose-dependent manner | clearly downregulates IP-10 | reduce IP-10 to levels found in uninfected controls | more effective at downregulation of IP-10; also recorded: more effective than 3′SL | effective in reducing inflammation caused by RSV |  | increase IL-8 |  |  | >10 mg HMO/mL | immunomodulatory | approximately 60% |  |  | 
4 | CC(=O)N[C@H]1[C@H]([C@H](O)[C@H](O)CO)OC(O)(C(=O)O)C[C@@H]1O (some centres unmarked) [SA, sialic acid] |  |  |  |  |  |  |  |  |  |  |  |  |  |  |  | ~5000 µg/mL (≈ 16.2 mM) | > 90% | ~2000 µg/mL (≈ 6.47 mM)
